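Cells were grown in 96-well plates and exposed to each compound for 48 hours at five concentrations; endpoints were interpolated linearly between bracketing concentrations, or set to the highest concentration if not reached. Here, GI50 denotes the concentration required for 50% inhibition of growth.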 Activity calls are given as the source filed them. Rule as the data show it: active = GI50 up to about 1.1 µM and inactive = higher.
Experiments:
Assay in all cases: growth of human tumour cells (NCI), 48 h
[1] = test system: SNB-75
[2] = test system: SK-MEL-5
[3] = test system: SK-MEL-28
[4] = test system: ACHN
[5] = test system: SF-295
[6] = test system: NCI-H460
[7] = test system: HCT-15
[8] = test system: 786-0
[9] = test system: UO-31
[10] = test system: OVCAR-4
[11] = test system: HOP-62
[12] = test system: HL-60
[13] = test system: COLO 205
[14] = test system: SF-539
[15] = test system: UACC-257
[16] = test system: HOP-92
[17] = test system: NCI-H226
[18] = test system: OVCAR-8
[19] = test system: A498

| SMILES | GI50 [1] | GI50 [2] | GI50 [3] | GI50 [4] | GI50 [5] | GI50 [6] | GI50 [7] [µM] | GI50 [8] | GI50 [9] | GI50 [10] | GI50 [11] | GI50 [12] | GI50 [13] | GI50 [14] | GI50 [15] | GI50 [16] | GI50 [17] | GI50 [18] | GI50 [19] |
| --- | --- | --- | --- | --- | --- | --- | --- | --- | --- | --- | --- | --- | --- | --- | --- | --- | --- | --- | --- |
| N#Cc1c(-c2ccc(Cl)cc2)c2c(n(C3OC(CO)C(O)C(O)C3O)c1=S)CCC2 (stereo unspecified) | 19.8 µM (inactive) | 13.3 µM (inactive) | 17.8 µM (inactive) | 33 µM (inactive) | > 10 µM (inactive) | 33 µM (inactive) | 36.6 | 30.9 µM (inactive) | 38.7 µM (inactive) | 34 µM (inactive) | 23.6 µM (inactive) | > 100 µM (inactive) | 29.6 µM (inactive) | 19.2 µM (inactive) | 33.4 µM (inactive) | 24.3 µM (inactive) |  |  |  |
| Cc1ncc2c(=O)c3c(oc2n1)c1ccccc1n3Cc1ccccc1 | 29.5 µM (inactive) | > 100 µM (inactive) | > 100 µM (inactive) | 53.5 µM (inactive) | > 100 µM (inactive) | > 100 µM (inactive) | > 100 | 84.9 µM (inactive) | > 100 µM (inactive) |  | 27.4 µM (inactive) | > 100 µM (inactive) | > 100 µM (inactive) | > 100 µM (inactive) | > 100 µM (inactive) |  | > 100 µM (inactive) | > 100 µM (inactive) |  |
| Cc1ccc(S(=O)(=O)NNC(=O)c2cc(C)ccc2NC(=O)C23CC4CC(CC(C4)C2)C3)cc1 |  | 61.5 µM (inactive) |  | 21.1 µM (inactive) | 45.5 µM (inactive) | 43.8 µM (inactive) | 22.7 | 21.9 µM (inactive) | 21.6 µM (inactive) | 27.7 µM (inactive) | 29.3 µM (inactive) | 66.8 µM (inactive) | > 100 µM (inactive) | 52.1 µM (inactive) | 25.4 µM (inactive) | 21.6 µM (inactive) | 60.7 µM (inactive) | 45.7 µM (inactive) |  |
| CC1OC2OC3C(OCC(O)C3O)OC(=O)[C@]34CCC(C)(C)CC3C3=CCC5[C@@]6(C)C[C@H](O)[C@H](OC7OC(CO)C(O)C(O)C7OC7OCC(OC(=O)CC(C)(O)CC(=O)OC1C(OC1OC(CO)C(O)C(O)C1O)C2O)C(O)C7O)[C@@](C)(CO)C6CC[C@@]5(C)[C@]3(C)CC4 (stereo partly specified) | 11.5 µM (inactive) | 11.6 µM (inactive) | 1.97 µM (inactive) | 8.3 µM (inactive) | 4.06 µM (inactive) | 12 µM (inactive) | 12 | 4.83 µM (inactive) | 4.47 µM (inactive) | 6.25 µM (inactive) | 1.44 µM (inactive) | 1.8 µM (inactive) | 2.3 µM (inactive) | 13.5 µM (inactive) | 3.48 µM (inactive) | 10.3 µM (inactive) | 17.2 µM (inactive) | 12.3 µM (inactive) |  |
| O=C(O)c1ccc2c(c1)CC1(C2)Cc2ccccc2C1=O (stereo unspecified) | > 100 µM (inactive) | > 100 µM (inactive) | > 100 µM (inactive) | > 100 µM (inactive) | > 100 µM (inactive) | > 100 µM (inactive) | > 100 | > 100 µM (inactive) | > 100 µM (inactive) | > 100 µM (inactive) | > 100 µM (inactive) | > 100 µM (inactive) | > 100 µM (inactive) | > 100 µM (inactive) | > 100 µM (inactive) | 25.2 µM (inactive) | > 100 µM (inactive) | > 100 µM (inactive) |  |
| O=C(Nc1ccc(C(F)(F)F)cc1)NC(F)(F)F | > 100 µM (inactive) | > 100 µM (inactive) | > 100 µM (inactive) | > 100 µM (inactive) |  |  | > 100 | > 100 µM (inactive) | > 100 µM (inactive) |  |  | > 100 µM (inactive) | > 100 µM (inactive) | > 100 µM (inactive) | > 100 µM (inactive) |  |  | > 100 µM (inactive) | > 100 µM (inactive) |
| Nc1ccc2c(c1)nc1n2C(c2c(F)cccc2F)SC1 (stereo unspecified) | > 100 µM (inactive) | 47.8 µM (inactive) | > 100 µM (inactive) | > 100 µM (inactive) | > 100 µM (inactive) | > 100 µM (inactive) | > 100 | > 100 µM (inactive) | 97.7 µM (inactive) | > 100 µM (inactive) | > 100 µM (inactive) | 48.5 µM (inactive) | > 100 µM (inactive) | > 100 µM (inactive) | > 100 µM (inactive) |  |  | > 100 µM (inactive) | > 100 µM (inactive) |
| CC(C)CCCC(C)[C@H]1CCC2[C@@H]3CCC4Cc5nc6c(nc5C[C@]4(C)C3CC[C@@]21C)CC1CC[C@@H]2C(C[C@@H](O)[C@@]3(C)C2C[C@@H]2OC4(CCC(C)CO4)C(C)[C@@H]23)[C@@]1(C)C6 (stereo partly specified) | > 100 µM (inactive) | > 100 µM (inactive) | > 100 µM (inactive) | > 100 µM (inactive) | > 100 µM (inactive) | > 100 µM (inactive) | > 100 | > 100 µM (inactive) |  | > 100 µM (inactive) | > 100 µM (inactive) | > 100 µM (inactive) | > 100 µM (inactive) | > 100 µM (inactive) | > 100 µM (inactive) | > 100 µM (inactive) | > 100 µM (inactive) | > 100 µM (inactive) |  |

— ChEMBL document CHEMBL1201862, “PubChem BioAssay data set” (2004)
